In US11129910B2, “Specific conjugation linkers, specific immunoconjugates thereof, methods of making and uses such conjugates thereof” (priority 2016, dated 2021):

Assays:
[1] = tested on: NCI-N87, a human gastric carcinoma cell line; assay: In vitro cytotoxicity (MTT) assay; format: cell-based; details: NCI-N87 cells, 120 hours incubation, read-out: N87 cell (Ag+) IC50
Protocol: The cell line used in the cytotoxicity assays was NCI-N87, a human gastric carcinoma cell line. The cells were grown in RPMI-1640 with 10% FBS. To run the assay, the cells (180 μl, 6000 cells) were added to each well in a 96-well plate and incubated for 24 hours at 37° C. with 5% CO2. Next, the cells were treated with test compounds (20 μl) at various concentrations in appropriate cell culture medium (total volume, 0.2 mL). The control wells contain cells and the medium but lack the test compounds. The plates were incubated for 120 hours at 37° C. with 5% CO2. MTT (5 mg/ml) was then added to the wells (20 μl) and the plates were incubated for 1.5 hr at 37° C. The medium was carefully removed and DMSO (180 μl) was added afterward. After it was shaken for 15 min, the absorbance was measured at 490 nm and 570 nm with a reference filter of 620 nm. The inhibition % was calculated according to the following equation: inhibition %=[1-(assay-blank)/(control-blank)]×100.

[2] = tested on: human gastric carcinoma N-87 cell line tumor xenograft; assay: Antitumor activity in vivo, tumor xenograft model; design: species or system BALB/c Nude mice
Protocol: The in vivo efficacy of conjugates 196a, 201, 206, 354, 358, 370, 377, 385, and 407 along with T-DM1 were evaluated in a human gastric carcinoma N-87 cell line tumorxenograft models. Five-week-old female BALB/c Nude mice ([…]) were inoculated subcutaneously in the area under the right shoulder with N-87 carcinoma cells (5×10^6 cells/mouse) in 0.1 mL of serum-free medium. The tumors were grown for 8 days to an average size of 130 mm^3. The animals were then randomly divided into […] (6 animals per group). The first group of mice served as the control group and was treated with the phosphate-buffered saline vehicle. The remaining […] were treated with conjugates 196a, 201, 206, 354, 358, 370, 377, 385, 407 and T-DM1 respectively at dose of 6 mg/Kg administered intravenously. Three dimensions of the tumor were measured every 4 days and the tumor volumes were calculated using the formula tumor volume=1/2 (length×width×height). The weight of the animals was also measured at the same time. A mouse was sacrificed when any one of the following criteria was met: (1) loss of body weight of more than 20% from pretreatment weight, (2) tumor volume larger than 1500 mm^3, (3) too sick to reach food and water, or (4) skin necrosis. A mouse was considered to be tumor-free if no tumor was palpable.

T-DM1
IC50 [1]: 0.07 nM | duration of tumor growth inhibition ([2]; 6 mg/Kg intravenously): 38 days | elimination / eradication of the tumors ([2]; 6 mg/Kg, i.v., one injection): not able to eliminate the tumors
